Results from article PMC11181322, “Copper(II) Complexes with Isomeric Morpholine-Substituted 2-Formylpyridine Thiosemicarbazone Hybrids as Potential Anticancer Drugs Inhibiting Both Ribonucleotide Reductase and Tubulin Polymerization: The Morpholine Position Matters” (Journal of Medicinal Chemistry, 2024).

Key:
purified tubulin = assay: Inhibition of polymerization of purified tubulin; type: biochemical; conditions: read-out: inhibition of tubulin IC50 ± SD
tubulin = assay: Inhibition of [3H]colchicine binding to tubulin; conditions: 0.5 μM inhibitor; tubulin 0.5 μM, colchicine 5 μM
MES-SA cells = assay: Fluorescent protein-based cytotoxicity assay, MES-SA; type: cell-based, human; conditions: Homo sapiens, MES-SA; 120 h; ± SD; n = 3
Excerpt: (§1) The cytotoxic activity of proligands H2L^3–H2L^6 and their copper(II) complexes 3–6 was investigated in the MES-SA (human uterine sarcoma) and in its MDR counterpart (MES-SA/Dx5) cell lines by a fluorescent protein-based assay.[73]
(§2) The human uterine sarcoma cell lines MES-SA and the doxorubicin selected MES-SA-Dx5 were obtained from ATCC (MES-SA: No. CRL-1976, MES-SA/Dx5: No. CRL-1977) and were used for the intracellular ROS generation studies. For cytotoxicity, we used the fluorescent cell lines MES-SA mCherry and MES-SA/Dx5 eGFP, which were created by lentiviral transductions of the respective genes.[73] The phenotype of the resistant cells was maintained by 500 nM doxorubicin treatment a week before use and was verified using cytotoxicity assays. Cells were cultivated at 37 °C, 5% CO2 in Dulbecco’s modified Eagle's Medium (DMEM, Sigma-Aldrich), supplemented with 10% fetal bovine serum, 5 mM glutamine, and 50 unit/mL penicillin and streptomycin (Thermo Fisher).
(§3) MES-SA mCherry and MES-SA/Dx5 eGFP cell suspensions were seeded after trypsinization at 2500 cells/20 μL density on 384-well plates, containing 20 μL of completed medium. The next day, serial dilution of the compounds was prepared and added in an additional 20 μL, with or without 0.4 μM Tariquidar. Liquid handling steps were performed by a Hamilton StarLet robot. […] The mean and standard deviation of the pIC50 values were calculated and converted to IC50 values.

MES-SA/Dx5 cells = assay: Fluorescent protein-based cytotoxicity assay, MES-SA/Dx5; type: cell-based, human
Excerpt: as §1, §2, §3

SMILES	IC50 (purified tubulin) [nM]	inhibition of colchicine binding % inhibition ± SD (tubulin) [%]	IC50 (MES-SA cells) [nM]	IC50 (MES-SA/Dx5 cells; Homo sapiens, MES-SA/Dx5, 120 h, ± SD, n = 3) [nM]	SR, selectivity ratio IC50 (MES-SA)/IC50 (MES-SA/Dx5) (MES-SA/Dx5 cells; in the absence of TQ)
COc1ccc(/C=C\c2cc(OC)c(OC)c(OC)c2)cc1O [C-A4, Combretastatin A-4, reference compound]	[…]	85 ± 2	–	–	–
COc1cccc2c1C(=O)c1c(O)c3c(c(O)c1C2=O)C[C@@](O)(C(=O)CO)C[C@@H]3O[C@H]1C[C@H](N)[C@H](O)[C@H](C)O1 [Doxorubicin, reference compound]	–	–	40 ± 10	1900 ± 600	0.02
